Measured values as given in PMC5567169 (Emerging Microbes & Infections, 2017).

Columns and labels:
FtlA [1] = biological target: T1, FtlA (Francisella tularensis, UniProt A0AAI8BGE8)
T1 construct: gene FTL_0430

FtlA [2] = biological target: T1, FtlA; remark: listed apart in the source

T1 sequence (A0AAI8BGE8 1-293): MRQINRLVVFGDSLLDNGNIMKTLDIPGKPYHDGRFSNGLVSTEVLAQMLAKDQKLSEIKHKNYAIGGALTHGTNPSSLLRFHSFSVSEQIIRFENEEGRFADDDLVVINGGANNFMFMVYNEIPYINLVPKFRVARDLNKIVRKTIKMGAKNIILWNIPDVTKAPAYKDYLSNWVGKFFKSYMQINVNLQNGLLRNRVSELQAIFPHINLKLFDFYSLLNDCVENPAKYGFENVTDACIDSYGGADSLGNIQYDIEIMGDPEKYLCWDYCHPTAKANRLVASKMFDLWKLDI

| Structure (SMILES) | halo (clear zone) assay on agar plates (FtlA [1]) | p-nitrophenyl ester hydrolysis by purified OMVs (FtlA [2]) |
| --- | --- | --- |
| CCCC(=O)OCC(COC(=O)CCC)OC(=O)CCC [tributyrin] | E. coli strain harboring the FtlA-expressing plasmid (pST2000) showed a clear zone of halo |  |
| CCCC(=O)Oc1ccc([N+](=O)[O-])cc1 [p-nitrophenyl butyrate (C4)] |  | OMVs of the wild-type LVS hydrolyzed p-nitrophenyl butyrate (C4) efficiently |
